Data from article PMC5613053 (Investigational New Drugs, 2017).

Molecular target: T1, phosphorylated FLT3 (Homo sapiens, UniProt P36888, INS600HVDFREYEYD)
T1 construct: MV4–11 cells, which endogenously express FLT3-ITD; from tissue; host or cells: MV4-11 xenograft tumours from nude mice
T1 sequence (P36888 with tags, fused parts or gaps INS600HVDFREYEYD): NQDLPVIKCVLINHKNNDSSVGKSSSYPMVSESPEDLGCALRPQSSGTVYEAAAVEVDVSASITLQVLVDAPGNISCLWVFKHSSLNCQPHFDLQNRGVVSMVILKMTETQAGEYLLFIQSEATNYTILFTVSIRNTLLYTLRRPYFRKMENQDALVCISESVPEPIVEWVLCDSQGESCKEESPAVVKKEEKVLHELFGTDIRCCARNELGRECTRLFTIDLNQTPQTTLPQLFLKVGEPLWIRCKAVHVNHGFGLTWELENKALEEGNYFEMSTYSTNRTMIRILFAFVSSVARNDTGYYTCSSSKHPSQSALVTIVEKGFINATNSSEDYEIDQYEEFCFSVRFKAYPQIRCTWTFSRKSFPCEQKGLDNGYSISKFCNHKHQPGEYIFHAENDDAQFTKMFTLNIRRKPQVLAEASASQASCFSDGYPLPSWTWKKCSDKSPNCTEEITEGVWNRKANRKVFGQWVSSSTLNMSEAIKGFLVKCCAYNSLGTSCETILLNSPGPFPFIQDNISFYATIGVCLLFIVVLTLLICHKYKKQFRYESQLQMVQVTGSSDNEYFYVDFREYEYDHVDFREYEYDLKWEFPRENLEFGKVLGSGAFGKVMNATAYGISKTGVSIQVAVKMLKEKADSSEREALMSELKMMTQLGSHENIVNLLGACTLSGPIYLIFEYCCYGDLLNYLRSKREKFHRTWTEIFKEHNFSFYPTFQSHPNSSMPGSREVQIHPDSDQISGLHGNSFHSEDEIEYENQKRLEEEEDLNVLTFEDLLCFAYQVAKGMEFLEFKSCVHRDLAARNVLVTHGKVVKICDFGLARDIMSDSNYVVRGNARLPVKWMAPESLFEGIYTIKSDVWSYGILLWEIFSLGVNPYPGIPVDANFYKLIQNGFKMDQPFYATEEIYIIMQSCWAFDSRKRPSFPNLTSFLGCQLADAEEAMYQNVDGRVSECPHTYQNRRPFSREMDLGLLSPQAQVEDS
Test: ELISA for phosphorylated FLT3 / total FLT3 in MV4-11 xenograft tumors
Type: in vivo, mice
Description: Detailed protocols can be found in the online resource.
After 1 month, mice were divided into groups, with each group having approximately the same mean tumor volume.
MULTI-ARRAY® 96-well plates (Meso Scale Discovery, Rockville, MD) were coated with capture antibodies for phosphorylated FLT3 or total FLT3 (DuoSet® IC, R&D systems, Minneapolis, MN) and incubated overnight at 4°C with shaking. After washing with TBS-T, coated plates were blocked with 3% MSD® Blocker-A (Meso Scale Discovery) in TBS-T for 1 h at room temperature and then incubated with total protein lysates derived from MV4-11 xenografted tumors (500 μg/well for phosphorylated FLT3 and 20 μg/well for FLT3), overnight at 4°C. Following a wash step, anti-phosphotyrosine antibody (clone 4G10®, Biotin Conjugate [Millipore, Billerica, MA]) for the detection of phosphorylated FLT3 or the DuoSet® IC FLT3 detection antibody for total FLT3 were added to the plate and incubated for 2 h at room temperature. Wells were then washed and incubated with MSD® SULFO-TAG Labeled Streptavidin (Meso Scale Discovery) for 1 h at room temperature, followed by the addition of MSD® Read Buffer (Meso Scale Discovery). Electrochemiluminescent signals were measured using a SECTOR® imager (Meso Scale Discovery). Phosphorylation levels were normalized to total FLT3 levels in each group (3 mice/group except the point at 1 h after the administration of 1 mg/kg [2 mice]) relative to the mean value of the control group (5 mice/group). Data are reported as mean ± SEM.

CCc1nc(C(N)=O)c(Nc2ccc(N3CCC(N4CCN(C)CC4)CC3)c(OC)c2)nc1NC1CCOCC1 [gilteritinib]
Phospho-FLT3 state in tumor (single oral 1 mg/kg, by 24 h): returned to the pre-treatment level
Decrease in phospho-FLT3 in tumor (single oral 10 mg/kg, 24 h period): maintained throughout the 24 h experimental period
Decrease of phosphorylated FLT3 in tumor compared with control (within 1 h after single oral 1–10 mg/kg): approximately 40%
